Measurements published in the supplement of paper PMC10307832.

What was measured:
Experiment in all cases: relative viability (nuclei count vs DMSO), 5 days (fraction); higher = more cells survive
[1] = compound: CN(C)C/C=C/C(=O)Nc1cc2c(Nc3ccc(F)c(Cl)c3)ncnc2cc1O[C@H]1CCOC1 [Afatinib] + NC(=O)Nc1cc(-c2cccc(F)c2)sc1C(=O)N[C@H]1CCCNC1 [AZD7762] (partner 0.2 µM)
Method in brief: (§1)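 Nuclei were stained with Hoechst during a one-step fixation (final 0.05% Triton X-100, 1% formaldehyde, 1 ug/ml Hoechst) carried out 5 days after dosing, then counted on 4× images. The cells, lung cancer lines in 1536-well plates, had been dosed by pin tool the day after seeding with one drug alone or a fixed anchor-drug dose plus five library-drug doses (not always all listed) in √10 steps. Relative viability is the nuclei count in treated wells divided by that in vehicle wells, and each value is the median of duplicate plates.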

[2] = compound: CN(C)C/C=C/C(=O)Nc1cc2c(Nc3ccc(F)c(Cl)c3)ncnc2cc1O[C@H]1CCOC1 [Afatinib] + CC(C)C[C@H](NC(=O)[C@H](Cc1ccccc1)NC(=O)c1cnccn1)B(O)O [Bortezomib] (partner 0.002 µM)
Method in brief: as §1

[3] = compound: CN(C)C/C=C/C(=O)Nc1cc2c(Nc3ccc(F)c(Cl)c3)ncnc2cc1O[C@H]1CCOC1 [Afatinib] + CS(=O)(=O)N1CCN(Cc2cc3nc(-c4cccc5[nH]ncc45)nc(N4CCOCC4)c3s2)CC1 [Pictilisib] (partner 1 µM)
Method in brief: as §1

[4] = compound: CN(C)C/C=C/C(=O)Nc1cc2c(Nc3ccc(F)c(Cl)c3)ncnc2cc1O[C@H]1CCOC1 [Afatinib] + C[C@]1(O)C[C@@H](c2nc(-c3ccc4ccc(-c5ccccc5)nc4c3)c3c(N)nccn32)C1 [Linsitinib] (partner 1 µM)
Method in brief: as §1

[5] = compound: CN(C)C/C=C/C(=O)Nc1cc2c(Nc3ccc(F)c(Cl)c3)ncnc2cc1O[C@H]1CCOC1 [Afatinib] + O=C(c1cc(Cc2n[nH]c(=O)c3ccccc23)ccc1F)N1CCN(C(=O)C2CC2)CC1 [Olaparib] (partner 8 µM)
Method in brief: as §1

[6] = compound: CN(C)C/C=C/C(=O)Nc1cc2c(Nc3ccc(F)c(Cl)c3)ncnc2cc1O[C@H]1CCOC1 [Afatinib] + C[C@@H](Oc1cc(-c2cnn(C3CCNCC3)c2)cnc1N)c1c(Cl)ccc(F)c1Cl [Crizotinib] (partner 1 µM)
Method in brief: as §1

[7] = compound: CN(C)C/C=C/C(=O)Nc1cc2c(Nc3ccc(F)c(Cl)c3)ncnc2cc1O[C@H]1CCOC1 [Afatinib] + CC1(C)CCC(c2ccc(Cl)cc2)=C(CN2CCN(c3ccc(C(=O)NS(=O)(=O)c4ccc(N[C@H](CCN5CCOCC5)CSc5ccccc5)c(S(=O)(=O)C(F)(F)F)c4)cc3)CC2)C1 [Navitoclax] (partner 0.5 µM)
Method in brief: as §1

[8] = compound: CN(C)C/C=C/C(=O)Nc1cc2c(Nc3ccc(F)c(Cl)c3)ncnc2cc1O[C@H]1CCOC1 [Afatinib] + COc1cc2c(Oc3ccc(NC(=O)C4(C(=O)Nc5ccc(F)cc5)CC4)cc3F)ccnc2cc1OCCCN1CCOCC1 [Foretinib] (partner 0.25 µM)
Method in brief: as §1

[9] = compound: CN(C)C/C=C/C(=O)Nc1cc2c(Nc3ccc(F)c(Cl)c3)ncnc2cc1O[C@H]1CCOC1 [Afatinib] + Cc1nc(NC(=O)N2CCC[C@H]2C(N)=O)sc1-c1ccnc(C(C)(C)C(F)(F)F)c1 [Alpelisib] (partner 2 µM)
Method in brief: as §1

[10] = compound: CN(C)C/C=C/C(=O)Nc1cc2c(Nc3ccc(F)c(Cl)c3)ncnc2cc1O[C@H]1CCOC1 [Afatinib] + CS(=O)(=O)CCNCc1ccc(-c2ccc3ncnc(Nc4ccc(OCc5cccc(F)c5)c(Cl)c4)c3c2)o1 [Lapatinib] (partner 2 µM)
Method in brief: as §1

[11] = compound: CN(C)C/C=C/C(=O)Nc1cc2c(Nc3ccc(F)c(Cl)c3)ncnc2cc1O[C@H]1CCOC1 [Afatinib]
Method in brief: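 A plate was accepted only when its control CV was below 25% and the cells had doubled at least once. Viability is defined from nuclear counts as treated wells divided by vehicle wells, with the median taken across plates. That median covers lung cancer cell lines grown in 1536-well plates, dosed by pinning at five √10-spaced library-drug concentrations, and counted in MetaXpress from 4× Hoechst images after 5 days.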

NCI-H1703
relative viability ([1]; first compound 0.005 µM): 0.13
relative viability ([1]; first compound 0.01581 µM): 0.141
relative viability ([1]; first compound 0.05 µM): 0.119
relative viability ([1]; first compound 0.1581 µM): 0.121
relative viability ([1]; first compound 0.5 µM): 0.109
relative viability ([2]; first compound 0.005 µM): 0.414
relative viability ([2]; first compound 0.01581 µM): 0.299
relative viability ([2]; first compound 0.05 µM): 0.343
relative viability ([2]; first compound 0.1581 µM): 0.288
relative viability ([2]; first compound 0.5 µM): 0.281
relative viability ([3]; first compound 0.005 µM): 0.239
relative viability ([3]; first compound 0.01581 µM): 0.246
relative viability ([3]; first compound 0.05 µM): 0.263
relative viability ([3]; first compound 0.1581 µM): 0.23
relative viability ([3]; first compound 0.5 µM): 0.205
relative viability ([4]; first compound 0.005 µM): 0.49
relative viability ([4]; first compound 0.05 µM): 0.651
relative viability ([4]; first compound 0.1581 µM): 0.608
relative viability ([4]; first compound 0.5 µM): 0.585
relative viability ([5]; first compound 0.005 µM): 0.538
relative viability ([5]; first compound 0.05 µM): 0.411
relative viability ([5]; first compound 0.1581 µM): 0.297
relative viability ([5]; first compound 0.5 µM): 0.445
relative viability ([6]; first compound 0.005 µM): 0.824
relative viability ([6]; first compound 0.01581 µM): 0.694
relative viability ([6]; first compound 0.05 µM): 0.581
relative viability ([6]; first compound 0.1581 µM): 0.731
relative viability ([6]; first compound 0.5 µM): 0.561
relative viability ([7]; first compound 0.005 µM): 1.22
relative viability ([7]; first compound 0.01581 µM): 0.95
relative viability ([7]; first compound 0.05 µM): 1.34
relative viability ([7]; first compound 0.1581 µM): 0.746
relative viability ([7]; first compound 0.5 µM): 0.641
relative viability ([8]; first compound 0.005 µM): 0.319
relative viability ([8]; first compound 0.05 µM): 0.347
relative viability ([8]; first compound 0.1581 µM): 0.361
relative viability ([8]; first compound 0.5 µM): 0.329
relative viability ([9]; first compound 0.005 µM): 0.313
relative viability ([9]; first compound 0.01581 µM): 0.322
relative viability ([9]; first compound 0.05 µM): 0.286
relative viability ([9]; first compound 0.1581 µM): 0.278
relative viability ([9]; first compound 0.5 µM): 0.314
relative viability ([10]; first compound 0.005 µM): 1.76
relative viability ([10]; first compound 0.01581 µM): 1.02
relative viability ([10]; first compound 0.05 µM): 1.08
relative viability ([10]; first compound 0.1581 µM): 0.921
relative viability ([10]; first compound 0.5 µM): 0.753
relative viability ([11]; 0.005 µM): 1.25
relative viability ([11]; 0.01581 µM): 0.749
relative viability ([11]; 0.05 µM): 1.03
relative viability ([11]; 0.1581 µM): 0.853
relative viability ([11]; 0.5 µM): 0.713
